# Source: patent US12383628B2 (priority 2016, dated 2025)
# “And” between values parts separate entries of the source, which are not always exact repeats. Equal entries are not always repeated. “Also recorded” adds a separate entry of the source. Where two headings read alike, the source gives them in different places. Square brackets hold non-standard residues; d marks the D form. Ends that are not written are not given here. Peptide text beside a SMILES is read from it. Dmt = Cc1cc(O)cc(C)c1C[C@H](N)C(=O)O
# How the values were obtained:
# MOR = MOR (Homo sapiens, UniProt P35372); assay: Binding tests (Ki) MOR
# DOR = DOR (Homo sapiens, UniProt P41143); assay: Binding tests (Ki) DOR
# [1] = Stability and degradability of biogels in human plasma (Example 8); type: in vitro ADME; conditions: human plasma, 37° C.; for half-life at 14 μM: human, in solution
# Procedure: After centrifugation at 14 000 rpm for 15 minutes, 100 μL supernatant was diluted with 100 μL milliQ water in the injection vial. Injection samples were vortexed for 5 seconds and were analyzed by HPLC. […] Calculations were performed using Microsoft® Office Professional 2010 Excel.
# KOR = KOR (Homo sapiens, UniProt P41145); assay: Binding tests (Ki) KOR
# [2] = Peptide gelation (tilted tube / inverted vial test, minimum gelation concentration); type: physicochemical
# Procedure: The peptide gelation occurred by dissolving the TFA salt of the hexapeptide (2 mg) in 100 μL of PBS solution (pH 7.4) or physiological saline solution (0.9% NaCl).
# Both peptides 2 and 4 (Table 1) gave a transparent gel in the same conditions (PBS 10 mM at pH 7.4 with a minimum gelation concentration of 24 mM; 2% w/v). To evaluate the mechanical properties of these hydrogels in a more quantitative manner, rheological experiments were performed. The viscoelastic properties of the peptide hydrogels were measured by dynamic rheometry at 37° C. This technique allowed to measure the storage modulus G′ (corresponding to the material's stiffness or rigidity), loss modulus G″ (corresponding to the viscous properties of the material) and loss factor tan (o) (ratio of G″ over G′). According to the Winter-Chambon criterion, a material reaches gelation in rheological terms if the phase angle o gets frequency-independent (F. Chambon et al., 1987 and H. Winter et al., 1987).
# The peptide gelation occurred by dissolving the TFA salt of the peptide in 100 μL of PBS solution or physiological saline solution (0.9% NaCl) (pH 7.4).
# The peptide gelation occurs by dissolving the TFA salt of the hydrogelator (1 or 2 mg) in 100 μL of aqueous media, PBS solution (pH 7.4) or physiological saline solution (0.9% NaCl). After successive vortexing and sonication, the gel is left to rest overnight at room temperature.
# The hydrogelation was realized under physiologically relevant conditions, namely via the addition of phosphate-buffered saline (PBS) or sterile physiological saline solution (0.9% NaCl). The needed amount of hydrogelator was weighed in an Eppendorf® and solubilized by the addition of the above solutions. After vortex and sonication steps, the resulting solution was left at room temperature until gelation occurred. The gelation was qualitatively verified by the inverted vial test (if no gravitational flow was visible the gelation was considered successful). It can be noticed that all peptide hydrogelators depicted formed gels in PBS and saline solution at a concentration of 1 to 2% w/v.
# in vitro [3] = conditions: human, plasma, 37° C., in solution
# Procedure: Human plasma was obtained from the Belgian Red Cross (Vlaams-Brabant, Leuven). […] Frozen (−20° C.) human plasma samples were thawed and thermostated to 37+2° C. Dissolution of the lyophilized peptide and consecutive dilutions were performed in water. […] On every time point 100 μL spiked plasma was transferred to a 500 μL Eppendorf tube and a protein crash was performed using 300 μL methanol+0.1% TFA (4° C.). Suspensions were vortexed for 15 seconds and placed at 4° C. for 30 to 45 minutes. After centrifugation at 14000 rpm for 20 minutes, 100 μL supernatant was diluted with 100 μL water in the injection vial. Injection samples were vortexed for 5 seconds and placed in the autosampler. […] Concentrations were calculated by use of the calibration curve and transferred to a semi-log chart presenting the log concentrations as a function of time. The optimum curve was used to calculate the peptide-half life. Calculations were performed using Microsoft® Office Professional 2010 Excel.
# pH of the hydrogel = type: physicochemical
# [4] = TEM / cryo-TEM fibre morphology of hydrogels; type: physicochemical
# Procedure: Formvar carbon-coated 400-mesh copper grids (Agar Scientific, Stansted, United Kingdom) were treated with plasma using an ELMO Glow discharge system to clean the grid surface and to render the carbon surface hydrophilic. Hydrogel samples were prepared 12 h in advance as described above. Small aliquots of sample (5 μL) were pipetted onto the carbon grids for adsorption. After 30 s, excess of sample was removed by using a Whatman 541 filter paper. The loaded grids were stained during 10 s with 1% uranyl formate after which the grids were air-dried. Samples were analysed using a JEOL JEM-1400 transmission electron microscope, operating at accelerating voltage of 120 kV. Images were recorded on a CMOS TemCam-F416 camera and accessory software of TVIPS.
# 200-mesh copper grids coated with perforated carbon film (Lacey carbon film: ProSci-Tech Old, Australia) were used and were glow discharged in nitrogen for 5 s immediately prior to use. Hydrogel samples were prepared 12 h in advance as described above. Small aliquots of sample (4 μL) were pipetted onto the carbon grids for adsorption. After 30 s, excess of sample was removed by using a Whatman 541 filter paper. The grid was then plunged into liquid ethane cooled by liquid nitrogen. Frozen grids were stored in liquid nitrogen until required. Samples were analysed using a Gatan 626 cryoholder and Tecnai 12 Transmission electron microscope, operating at accelerating voltage of 120 kV. Images were recorded using an FEI Eagle 4k×4k CCD camera.
# in vitro [5] = conditions: human, plasma
# Procedure: Human plasma was obtained from the Belgian Red Cross (Vlaams-Brabant, Leuven). Prior to the stability test, selectivity, stability of the compound in the injection solvent, linearity, accuracy and precision of the method were investigated. Frozen (−20° C.) human plasma samples were thawed and thermostated to 37±2° C. Dissolution of the lyophilized peptide and consecutive dilutions were performed in water. The resulting aqueous solutions of each peptide individually was spiked in human plasma (10:90 v/v) with final plasma concentrations of 9 μM.
# On every time point 100 μL spiked plasma was transferred to a 500 μL Eppendorf tube and a protein crash was performed using the corresponding precipitation solvent (4° C.). Suspensions were vortexed for 15 s and placed at 4° C. for 30 to 45 min. After centrifugation at 18 625 g for 20 min, 100 μL supernatant was diluted with 100 μL water in the injection vial.
# Injection samples were vortexed for 5 sand placed in the autosampler. […] Concentrations were calculated by use of the calibration curve and transferred to a semi-log chart presenting the log concentrations as a function of time. The optimum curve was used to calculate the peptide half-life. Calculations were performed using Microsoft® Office Professional 2010 Excel.
# L929 mouse fibroblasts = assay: Cytotoxicity, Live/Dead viability staining on hydrogels (Example 9); type: cell-based
# Procedure: Hydrogels were prepared at 1, 2 or 3 mg/100 μL as duplicate in a 96-well ULA plate (Cat #CORN3474; Corning-Costar, 60 μL each well). The gels were photographed and pre-equilibrated before seeding with cells. For equilibration, gels were incubated at room temperature in 40 μL of L929 culture medium with double-strength Anti-Anti (Cat #15240062, GIBCO) for 2 h prior to seeding with cells. The equilibration medium was removed before cell seeding and retained to examine if the gels dissolved (even partially) or disintegrated into the culture medium. Next, […] mouse fibroblasts (ATCC) were seeded onto hydrogels at a concentration of 200,000 cells/ml in a volume of 50 μl. The cells were photographed immediately after seeding, observed by microscopy 2 h post-seeding and then observed and photographed at 24 h post-seeding. The cell culture medium consisted of MEM+GlutaMAX I (Cat #41090-036; GIBCO); 10% foetal bovine serum (Cat #12003C; SAFC, Sigma), 2× Anti-Anti (Cat #[…]) and 1× Non-Essential Amino Acids (Cat #41090-036; GIBCO).
# Bright field microscopy was performed through use of a IX71 inverted microscope with NIS-Elements F3.0 imaging software (Olympus). The TE2000 Eclipse fluorescent microscope with NIS-Elements AR3.2 software (Nikon) was used for fluorescence imaging microscopy. Automated cell counting was performed on the NC-200 NucleoCounter using proprietary lysis and stabilising reagents and cassettes (ChemoMetec).
# The viability and distribution of cells was assessed using a LIVE/DEAD Viability/Cytotoxicity Kit *for Mammalian cells* (Live-Dead Kit), (Cat #13224; Molecular Probes). Briefly, a working solution of live/dead solution was made as per manufacturer's instructions by adding 1.25 μl of Calcein AM (solution A) to 2.5 ml of pre-warmed PBS. The solution was thoroughly mixed by vortex and 2.5 μl of Ethidium homodimer (solution B), was added before vortexing a second time to mix. Excess medium was removed and the gels rinsed with 20 μl of warm PBS before a 40 μl of Live/Dead kit working solution was added to each well. The plate was incubated in a 37° C. cell culture incubator for 20 min before viewing using a fluorescent microscope. Green fluorescence was emitted from the cytoplasm of viable cells (excitation/emission ˜495 nm/˜515 nm) while dead cell nuclei fluoresced red (excitation/emission ˜495/˜635 nm) allowing a distinction to be made between viable and dead cells.
# [6] = Dynamic rheometry of hydrogels (storage modulus G′); type: physicochemical; conditions: 2% w/v in PBS, 37° C., value at 1 Hz
# Procedure: Dynamic rheometry measurements were performed on an AR-G2 rheometer (TA Instruments) equipped with electrically heated plates and a 10 mm-diameter aluminium parallel plate-plate geometry. Viscoelastic properties were measured by oscillatory frequency sweeps at 37° C. in the range between 0.01 and 10 Hz, using a controlled strain of 0.05%. Hydrogel samples were made 12 h in advance. A ring-shaped reservoir filled with a saturated NH4Cl solution was used as a solvent trap.
# [7] = for Hydrogel volume remaining: 2 w/v% in PBS, 150 μL s.c.
# Procedure: ^111/n-labeling of DOTA-peptide—^111InCb (5 μl,±4 MBq) (Mallinckrodt) was added to 200 μl 1 mg/ml DOTA-peptide 6, dissolved in 0.2 M ammonium acetate buffer (NH4OAc) pH 5, and incubated for 30 min at 50° C. Radiochemical purity (>95%) was verified by ITIC using 0.1 M citrate buffer pH 5 as mobile phase. 200 μl of ^111In-peptide 6 was diluted up to 1 ml with phosphate buffered saline (PBS, 10 mM) and incorporated within the hydrogel as described below.
# After sequential vortexing and sonication, hydrogels (2 w/v¾) were formed and let to rest overnight.
# C57Bl/6J mice were purchased by Charles River (n=3 per group) and all experimental procedures were performed under 2.5% isoflurane anesthesia (Iso-vet). 150 μL (0.518±0.037 MBq) of the ^111In-labeled hydrogel (stability experiment) or 150 μL (1.702±0.777 MBq) of hydrogels loaded with ^111In-labeled cargos (cargo release experiment) were injected subcutaneously on the hind limb. For comparison, 150 μL of ^111In-labeled cargos not loaded into a hydrogel were also subcutaneously injected. Immediately after injection, at 1 h30, 3 h, 6 h, 12 h, 24 h, 48 h and 72 h, animals were subjected to a SPECT/CT scan. SPECT images were acquired on an e.cam^180 system (Siemens) equipped with two triple-pinhole collimators designed for ^111In (1.5 mm pinhole opening, 250 mm focal length, 47 mm radius of rotation). Images were acquired over 360° in 64 projections of 30 s into a 128×128 matrix and reconstructed using an iterative algorithm correcting for radioactive decay and allowing automatic fusion with CT images (based on six 57Co fiducial markers). […]
# Maximum intensity projections (MIPs) were generated in Osirix Medical Software. Images were quantified using the software AMIDE (sourceforge.net). For the stability experiments, the size of the gel was determined by automatic delineation, for the cargo release experiments, the total radioactivity within a ROI drawn on the hind limb was calculated. Results were expressed as percentage of injected dose remaining in function of time. […]
# [8] = system: L929 (mouse fibroblast) cells; assay: Live/Dead cell viability assay on hydrogels (Example 5); type: cell-based; conditions: 24 h on hydrogel
# Procedure: L929 (mouse fibroblast) cells were obtained from ATCC® and maintained in Gibco®, MEM with GlutaMAX supplemented with 10% FBS (SAFC, Sigma), 1% Anti-Anti (100×, Gibco®) and 1% NEAA (100×, Gibco®). Cells were maintained on tissue culture treated polystyrene (TCPS) plates at 37° C. in a humified atmosphere containing 5% CO2 and 95% air. Cells were trypsinized, harvested and counted using a hemocytometer. The resulting cell suspension was diluted in Gibco® solution before addition to the hydrogels. For ease of handling and to produce homogeneous clear hydrogels, 100 μL of peptide hydrogels were prepared (in corresponding gelation conditions, see above) in Eppendorf tubes (0.5 ml) and transported using a 21G syringe to 96-well plates after simultaneously heating (60° C.) and mixing (900 rpm) using an Eppendorf ThermoMixer®. The hydrogels were left to set overnight in the wells at room temperature and were subsequently washed twice with 200 μL of Anti-Anti (100×, Gibco®) solution, 2 h each. After washing, media was removed and cells were seeded evenly over hydrogels. Cells were plated in duplicate on all hydrogels and control wells. Viability of cells on hydrogels was determined using the traditional Live/dead cell viability assay (Invitrogen) after culture durations of 24 h.
# Plates were incubated in 5% CO2 at 37° C. for 1 day to allow cell attachment and spreading to occur. […]
# [9] = In vivo monitoring of cargo release with fluorescence imaging; parameters: species or system athymic nude mice
# Procedure: Fluorescent cargo—IRDye800CW N-hydroxysuccinimide (NHS) ester (Li-COR Biosciences) was solubilized at 4 mg/l in PBS. The solution was stirred for 2 h in order to hydrolyze the NHS ester, resulting in compound 2 as fluorescent cargo (MW=1068 g/mol). The dye solution was either used as such, or incorporated within the hydrogel as described below.
# Animal study protocols were approved by the Ethical Committee for Animal Experiments of the Vrije Universiteit Brussel (also for section 2.5.). After subcutaneous injection of 150 μl of hydrogel containing 0.5 nmol of IRDye 800CW in athymic nude mice (Charles River, n=3 per group), fluorescence reflectance images of the posterior side of the mice were acquired over 24 h using the Fluobeam800 (Fluoptics) under 2.5% isoflurane anesthesia (Iso-Vet, Eurovet NV/SA). Fluorescence images were overlaid with white light images for anatomical localization. Regions of interest (ROI) were drawn around the site of injection and total fluorescence signal was measured within these ROIs using ImageJ software.
# Sequence of DOR (P41143 whole entry): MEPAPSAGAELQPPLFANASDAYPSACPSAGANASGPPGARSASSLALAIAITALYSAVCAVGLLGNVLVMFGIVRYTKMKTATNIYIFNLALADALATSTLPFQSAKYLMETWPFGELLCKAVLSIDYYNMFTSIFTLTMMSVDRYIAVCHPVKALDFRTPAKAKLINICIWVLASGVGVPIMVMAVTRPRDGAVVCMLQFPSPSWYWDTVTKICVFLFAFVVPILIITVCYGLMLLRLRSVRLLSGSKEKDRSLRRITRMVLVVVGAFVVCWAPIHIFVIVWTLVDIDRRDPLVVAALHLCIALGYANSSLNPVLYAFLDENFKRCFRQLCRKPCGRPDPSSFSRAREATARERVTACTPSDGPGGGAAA
# Sequence of MOR (P35372 whole entry): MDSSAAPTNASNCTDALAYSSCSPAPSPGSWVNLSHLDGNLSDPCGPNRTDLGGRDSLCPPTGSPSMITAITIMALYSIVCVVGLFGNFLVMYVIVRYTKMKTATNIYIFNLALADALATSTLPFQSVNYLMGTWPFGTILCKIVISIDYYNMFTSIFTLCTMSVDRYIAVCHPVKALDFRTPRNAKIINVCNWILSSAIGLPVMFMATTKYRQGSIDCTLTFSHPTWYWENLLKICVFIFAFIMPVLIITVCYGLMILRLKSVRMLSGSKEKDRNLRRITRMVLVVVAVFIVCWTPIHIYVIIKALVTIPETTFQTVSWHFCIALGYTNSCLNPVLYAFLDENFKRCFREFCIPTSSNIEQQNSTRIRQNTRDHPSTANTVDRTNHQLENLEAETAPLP
# Sequence of KOR (P41145 whole entry): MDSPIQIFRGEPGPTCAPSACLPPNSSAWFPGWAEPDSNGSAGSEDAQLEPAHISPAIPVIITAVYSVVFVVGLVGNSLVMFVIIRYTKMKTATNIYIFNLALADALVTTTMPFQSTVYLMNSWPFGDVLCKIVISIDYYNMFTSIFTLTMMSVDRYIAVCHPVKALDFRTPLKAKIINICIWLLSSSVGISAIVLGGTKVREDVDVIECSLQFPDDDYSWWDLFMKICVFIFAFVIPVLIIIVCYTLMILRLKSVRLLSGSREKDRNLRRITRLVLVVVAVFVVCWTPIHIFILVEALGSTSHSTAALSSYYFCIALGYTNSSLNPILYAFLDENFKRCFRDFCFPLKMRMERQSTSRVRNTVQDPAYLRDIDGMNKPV
compound,measurement,setting,value
"Cc1cc(O)cc(C)c1C[C@H](N)C(=O)N[C@H](CCCCN)C(=O)N[C@@H](Cc1ccccc1)C(=O)N[C@@H](Cc1ccccc1)C(=O)N[C@@H](CCC(=O)O)C(=O)N[C@@H](Cc1ccccc1)C(=O)N[C@@H](CCC(N)=O)C(=O)N[C@@H](Cc1ccccc1)C(=O)N[C@@H](CCCCN)C(N)=O [CM-53, Dmt-DLys-Phe-Phe-Glu-Phe*-Gln-Phe-Lys-NH2] (H-[Dmt][dK]FFEFQFK-NH2; N-terminus assumed)",Ki,MOR,7.4 nM
same,Ki,DOR,24 nM
same,Time at which degradation of the heptapeptide into the N-terminal pentapeptide started,[1],7.5 min
same,Time at which degradation of the pentapeptide into tripeptide was observed,[1],60 min
same,Time of appearance of the heptapeptide (loss of Phe-Lys-NH2),[1],2.5 min
same,half-life at 14 μM,[1],~18 min
same,Ki,KOR,337 nM
"Cc1cc(O)cc(C)c1C[C@H](N)C(=O)N1CCC[C@H]1C(=O)N[C@@H](Cc1ccccc1)C(=O)N[C@@H](Cc1ccccc1)C(=O)N[C@@H](CCC(N)=O)C(=O)N[C@@H](Cc1ccccc1)C(=O)N[C@@H](CCC(N)=O)C(=O)N[C@@H](Cc1ccccc1)C(=O)N[C@@H](CCCCN)C(N)=O [CM-56, Dmt-Pro-Phe-Phe-Gln-Phe*-Gln-Phe-Lys-NH2] (H-[Dmt]PFFQFQFK-NH2; N-terminus assumed)",Ki,MOR,65 nM
same,Ki,DOR,176 nM
same,Ki,KOR,337 nM
"Cc1cc(O)cc(C)c1C[C@H](N)C(=O)N1CCC[C@H]1C(=O)N[C@@H](Cc1c[nH]c2ccccc12)C(=O)N[C@@H](Cc1ccccc1)C(=O)N[C@@H](CCC(N)=O)C(=O)N[C@@H](Cc1ccccc1)C(=O)N[C@@H](CCC(N)=O)C(=O)N[C@@H](Cc1ccccc1)C(=O)N[C@@H](CCCCN)C(N)=O [CM-58, Dmt-Pro-Trp-Phe-Gln-Phe*-Gln-Phe-Lys-NH2] (H-[Dmt]PWFQFQFK-NH2; N-terminus assumed)",Ki,MOR,7.5 nM
same,Ki,DOR,15 nM
same,half-life at 14 μM,[1],~12 min
same,Ki,KOR,120 nM
"FEFQFK [peptide 1, H-Phe-Glu-Phe*-Gln-Phe-Lys-OH]",Minimum gelation concentration,[2]; in mQ:PBS 50:50,1 (in mQ:PBS w/v %
same,half-life at 72 μM,in vitro [3],~2 min
same,pH of the gel,pH of the hydrogel; listed as MBG-1,< 4 and 3.49
"FEFQFK-NH2 [peptide 2, H-Phe-Glu-Phe*-Gln-Phe-Lys-NH2]",Fibre thickness,"[4]; TEM, Example 2",ca. 10 nm
same,Fibre diameter,"[4]; cryoTEM and negative staining, Example 9",~5 nm
same,half-life at 9 μM,in vitro [5],~15 min
same,Re-gelation after injection,[2]; 25G needle used for s.c. injections,immediate re-gelation after injection through a 25G needle
same,Minimum gelation concentration,"[2]; PBS 10 mM, pH 7.4",24 mM
same,Minimum gelation concentration,"[2]; PBS 10 mM, pH 7.4 (text, Examples 1-2)",2 % w/v
same,Minimum gelation concentration (w/v % in PBS),"[2]; in PBS, '/' = no gel",2 w/v %
same,half-life at 72 μM,in vitro [3],~15 min
same,pH of the gel,pH of the hydrogel,4.02
same,Cytotoxicity in vitro,L929 mouse fibroblasts,showed no cytotoxicity in vitro
same,Storage modulus G′,[6],ca. 8000 Pa
same,Hydrogel volume remaining,[7]; 12 h,24%
same,Hydrogel volume remaining,[7]; 72 h post-injection,9%
same,Time within which most degradation occurred,[7]; after subcutaneous injection of the hydrogel,≤ 12 h
same,"Cytotoxicity (Live/Dead cell viability, qualitative)",[8],"the majority of cells were green fluorescent and thus, were viable; also recorded: noncytotoxic"
IRDye 800CW carboxylate,Time the fluorescent signal remains visible,"[9]; dye co-formulated within hydrogel of peptide 2 (2 w/v%), s.c.",more than 24 h
same,Fluorescent signal at the injection site,[9]; dye injected s.c. as solution,reduces drastically within approximately two hours
